Broadly, the melting point is the temperature of the solid-liquid transition. As to `CCOC(=O)c1cc(C)n(-c2cccc(C(=O)O)c2)c1-c1ccccc1`, the melting point was in the range of 161 to 163 °C. For the compound `FC(F)(F)CNc1ccc2c(c1)N1CCCN=C1S2`, the melting point is 187 °C. Compound `COC(=O)NC1=NC(c2ccc(I)cc2)CN1` (stereo not given) showed a melting point of 229 to 230 °C. As for `COCCCNC(N)=O`, the figure is 128 to 130 °C. As for `Cc1c(N2CCC(N(C)C)C(C)C2)c(F)cc2c(=O)c(C(=O)O)cn(C3CC3)c12` (stereo not given), the figure is 221 °C; as for `COCc1cc2c(N)cccc2cn1`, 105 °C. As for `CNC(=S)NS(=O)(=O)c1cc(CCNC(=O)/C=C/c2ccccn2)ccc1OC`, the figure is 188 °C. Take `Cc1c(-c2ccc(OC(C)C)cc2)n(Cc2ccc(OCCN3CCCCCC3)cc2)c2ccc(O)cc12`: the melting point is 120 to 125 °C. As for `Cn1cc(-c2ccncc2)cc(N)c1=O`, the figure is 175 to 176 °C; as for `CCCOCCOc1ccc(-c2ccc3c(c2)C=C(C(=O)O)CCCN3CCC)cc1`, 202 to 204 °C. As to `COc1ccc(N2CCN(CCN3CCC(c4noc5cc(F)ccc45)CC3)C2=O)cc1`, the melting point was in the range of 154 to 157 °C. As for `Cn1c([N+](=O)[O-])cnc1-c1cc(CCC(=O)O)on1`, the figure is 114 °C; as for `Cn1cc(-c2ccc3c(ccn3-c3ccc(F)cc3)c2)cn1`, 144 to 145 °C; as for `O=C(c1ccccn1)c1cc2ccncc2[nH]1`, 219 to 222 °C.

As to `O=C(Nc1ccc2[nH]cnc2c1)C(=O)N1CCC(Cc2ccccc2)CC1`, the melting point was 85 to 87 °C. With `CN(C)CCOC(=O)c1cc(F)ccc1Nc1ccnc2c(Cl)cccc12`, the melting point was 121 to 122 °C. The compound `COc1cccc(Cn2cnc3c(-c4ccco4)nc(Cl)nc32)c1` gave a melting point of 160 to 161 °C. As for `O=C1CCOc2cc(OCc3ccccc3)c(F)cc21`, the figure is 155 to 156 °C; as for `Cc1ccc(N(c2ccc(C)cc2)c2ccc(-c3ccc(N(c4ccc(C)cc4)c4ccc(C)cc4)cc3)cc2)cc1`, 215 to 216 °C; as for `C=CC(=O)N1C(C)(C)CC(=C2CC(C)(C)N(C(=O)C=C)C(C)(C)C2)CC1(C)C`, 196 to 198 °C. Compound `CC(=O)NC(=S)c1nc2cc(Cl)c(Cl)cc2n1S(=O)(=O)N(C)C` came in with a melting point of 172 to 173 °C. As for `COc1ccc(C(C)(O)c2ocnc2C)cc1` (stereo not given), the figure is 115 to 116 °C; as for `Cc1cc(COc2ccccc2)c2c(N)c(C(N)=O)sc2n1`, 194 to 196 °C; as for `C#Cc1ccc2ccc(OC(OC)C(=O)NC(C)(C)COC)cc2c1` (stereo not given), 91 to 92 °C. As for `COc1ccc(CC(CCCC(C#N)(c2ccc(OC)c(OC)c2)C(C)C)[N+](=O)[O-])cc1OC` (stereo not given), the figure is 107 to 110 °C; as for `COc1ccc(S(=O)(=O)Nc2ccc(F)cc2Nc2ccccc2)cc1`, 173 to 174 °C.

Compound `O=C1NC(=O)C(Cc2ccc(N3CCC(NC[C@H](O)c4cccc(Cl)c4)CC3)cc2)S1` (stereo not given in full) displayed a melting point of 195 to 198 °C.

Compound `COC(=O)COc1ccc(CC(C)NCC(O)c2cc3ccccc3o2)cc1C` (stereo not given) had a melting point of 115 to 130 °C. As for `Clc1ccsc1-c1nc(COc2ccc(CCCn3ccnc3)cc2)co1`, the figure is 69 to 70 °C. As for `C[C@@H](NC(=O)c1c[nH]c2ncc(-c3nn(C)c4cc(F)ccc34)nc12)C(=O)N1CC(C#N)C1`, the figure is 270 to 277 °C; as for `CC(C)(C)OC(=O)COCCCCS(=O)(=O)c1cnc(-c2ccccc2)c(-c2ccccc2)n1`, 88 to 90 °C; as for `CN1CCN(c2cccc3ccc(NC(=O)c4ccccc4)cc23)CC1`, 173 to 175 °C. As for `NP(N)(=O)c1ccccc1`, the figure is 187 to 191 °C; as for `CCOC(=O)c1ncn2c1CN(C)C(=O)c1ncccc1-2`, 252 to 254 °C; as for `CCOc1cc(=O)n(C)c2ccccc12`, 80 to 82 °C. Compound `Brc1ccc2nc(NC3=NCCN3)[nH]c2c1` yielded a melting point of 264 to 266 °C.

As for `Cc1ccc(-c2cn(C)cc(-c3ccccc3)c2=O)cc1`, the melting point came out at 144 °C. Regarding `CC(=O)c1ccc(NC(=O)c2ccc(-c3ccccc3)cc2)cc1`, the melting point lay within 283 to 285 °C. As for `Cc1cc2c(-c3cccc(C=O)c3)c(CC(=O)O)c(=O)oc2cc1Cl`, the figure is 230 to 232 °C; as for `CC(C)N[C@@H]1CCc2c(ccc(OCc3ccccc3)c2CO)[C@H]1O` (relative stereo), 138 to 139 °C; as for `CCc1c(C)c(NC(=O)CC(C)(C)C)c(C)c2c1SCC2c1ccc(C(C)C)cc1` (stereo not given), 172 to 173 °C. As for `O=C(O)Cc1ccccc1Oc1ccc(C(F)(F)F)cc1NS(=O)(=O)c1cc(C(F)(F)F)cc(C(F)(F)F)c1`, the figure is 165 to 166 °C; as for `COc1ccc(C(=O)Nc2ccccc2)cc1NC(=S)Nc1ccc(F)cc1`, 182 to 183 °C; as for `Cc1cc(N)nc(CCCCNC(=O)c2c(O)cccc2O)c1`, 158 to 159 °C. For `COc1ccc(NC(C)=O)cc1F`, the melting point was 120 °C. As for `CCCCCCC#Cc1ccc(C=C(C(=O)O)C(=O)O)s1`, the figure is 106 °C. For the compound `Cc1c(NC(=O)CC(C)(C)C)cc2c(c1C)OC(C)(C)C2(O)c1cccc(C(C)C)c1` (stereo not given), the melting point lay within 136 to 137 °C.

On to `CCCn1c(=O)c2[nH]c(CCCc3ccccc3)nc2n(CCC)c1=O`, for which the melting point was 137 to 138 °C.

In the case of `CC(=O)NNC(=O)c1ccncc1`, the melting point is 158 to 160 °C. In the case of `O=C(O)C1Cc2ccc(Cl)cc2NC1=O` (stereo not given), the melting point was in the range of 158 to 160 °C. As for `COc1ccc2cc(CC3=C(CC(=O)O)CCCC3=O)ccc2c1Br`, the figure is 165 to 166 °C; as for `Nc1nc(-c2cc(-c3c(F)cccc3Cl)no2)cs1`, 168 to 169 °C. Take `Nc1ccc2[nH]nc(Nc3nc(-c4ccccc4C(F)(F)F)nc4ccccc34)c2c1`: the melting point was in the range of 221 to 223 °C. As for `O=C(O)CCCOc1cccc(OCCC(c2ccccc2)(c2ccccc2)c2ccccc2)c1`, the figure is 53 to 55 °C. As for `O=C1CCCC(O)=C1C(=O)Nc1ccc(Cl)cc1`, the figure is 113 to 114 °C; as for `CSc1ccc(-c2nn(Cc3ccccc3)c(=S)cc2-c2ccc(F)cc2)cc1`, 108 °C. As for `Cc1cc(C(O)(C(F)(F)F)C(F)(F)F)cc(C)c1NCCO`, the figure is 110 to 113 °C; as for `Clc1cc2cc[nH]c2c(Cl)c1Cl`, 97.5 to 98 °C; as for `CC1(C)CCOC1=C(Oc1ccc(Cl)cc1)n1ccnc1`, 85 to 88 °C.

`c1ccc2c3c([nH]c2c1)CCCSCC3`: the melting point is 106 to 107 °C. As for `O=C(Cl)c1cc2[nH]c3cc(Cl)ccc3c2o1`, the figure is 232 to 233 °C. As for `COc1ccc(-n2nnc(-c3ccc(F)cc3Cl)c2N)cc1`, the figure is 175 to 177 °C; as for `CCCn1c(=O)c2c(nc(/C=C/c3ccc(OC)c(OC)c3)n2C)n(CCC)c1=O`, 127 °C. As for `CCOC(=O)C(C#N)(CCN1CCOCC1)c1ccc(C(F)(F)F)cc1` (stereo not given), the figure is 96 to 97 °C; as for `CCNC(=N)N(C(=N)NCC)c1cc(C(C)(C)C)c2c(c1)C(C)(C)CO2`, above 290 °C.

(Values after a melting point compilation (Tetko et al.; mined from patent text by program, amines drawn as free bases though some values may be those of a salt).)
